The NIST ThermoML archive (doi:10.1021/je0496950)
Several values for one entry are separate records, joined by “and”; a condition that tells them apart may be missing. Equal values may be shown once.

Legend:
[1] = 101 kPa, Liquid
[2] = mn = molality of the nth substance listed, in mol/kg; conditions: 101 kPa, Liquid; for speed of sound: Pulse-echo method

CC#N [acetonitrile]
[1]
Conditions | mass density
288.13 K | 787.307 kg/m3 and 787.308 kg/m3 and 787.312 kg/m3
288.15 K | 787.308 kg/m3
293.15 K | 781.933 kg/m3 [middle of 4 runs]
298.15 K | 776.532 kg/m3 [middle of 4 runs]
303.15 K | 771.106 kg/m3 [middle of 4 runs]
308.15 K | 765.645 kg/m3 and 765.664 kg/m3 and 765.649 kg/m3
313.15 K | 760.158 kg/m3 [middle of 4 runs]
323.15 K | 749.07 kg/m3 [middle of 4 runs]

[Ni+2].[O-][Cl+3]([O-])([O-])[O-].[O-][Cl+3]([O-])([O-])[O-] [nickel perchlorate] + CC#N
[2]
Conditions | mass density, 288.13 K [kg/m3] | mass density, 293.15 K [kg/m3] | mass density, 298.15 K [kg/m3] | mass density, 303.15 K [kg/m3] | mass density, 308.15 K [kg/m3] | mass density, 313.15 K [kg/m3] | mass density, 323.15 K [kg/m3] | speed of sound, 298.15 K [m/s]
m1 = 0.0492 | 797.088 | 791.73 | 786.35 | 780.945 | 775.512 | 770.049 | 759.023 | –
m1 = 0.04923 | – | – | – | – | – | – | – | 1281.8
m1 = 0.08198 | – | – | – | – | – | – | – | 1284
m1 = 0.082 | 803.621 | 798.268 | 792.896 | 787.511 | 782.087 | 776.641 | 765.646 | –
m1 = 0.1087 | 809.018 | 803.673 | 798.312 | 792.927 | 787.516 | 782.077 | 771.11 | 1285.8
m1 = 0.135 | 814.36 | 809.021 | 803.671 | 798.291 | 792.889 | 787.46 | 776.511 | 1287.5
m1 = 0.1611 | 819.735 | 814.406 | 809.058 | 803.686 | 798.299 | 792.88 | 781.957 | 1289.4
m1 = 0.1844 | 824.54 | 819.217 | 813.878 | 808.519 | 803.134 | 797.731 | 786.838 | 1290.9
m1 = 0.2114 | 830.147 | 824.83 | 819.495 | 814.141 | 808.766 | 803.366 | 792.486 | 1292.7
m1 = 0.2353 | 835.248 | 829.938 | 824.608 | 819.261 | 813.893 | 808.502 | 797.637 | 1294.1
m1 = 0.2607 | 840.618 | 835.309 | 829.987 | 824.647 | 819.287 | 813.905 | 803.067 | 1295.8

CC#N [acetonitrile] + [Co+2].[O-][Cl+3]([O-])([O-])[O-].[O-][Cl+3]([O-])([O-])[O-]
[2], m2 = 0
Conditions | mass density [kg/m3]
288.13 K | 787.307
293.15 K | 781.933
298.15 K | 776.535
303.15 K | 771.114
308.15 K | 765.664
313.15 K | 760.181
323.15 K | 749.107

CC#N [acetonitrile] + [Mn+2].[O-][Cl+3]([O-])([O-])[O-].[O-][Cl+3]([O-])([O-])[O-]
[2], m2 = 0
Conditions | mass density [kg/m3]
288.15 K | 787.308
293.15 K | 781.932
298.15 K | 776.531
303.15 K | 771.102
308.15 K | 765.645
313.15 K | 760.156
323.15 K | 749.07

[Mn+2].[O-][Cl+3]([O-])([O-])[O-].[O-][Cl+3]([O-])([O-])[O-] [manganese (II) perchlorate] + CC#N
[2]
Conditions | mass density, 288.15 K [kg/m3] | mass density, 293.15 K [kg/m3] | mass density, 298.15 K [kg/m3] | mass density, 303.15 K [kg/m3] | mass density, 308.15 K [kg/m3] | mass density, 313.15 K [kg/m3] | mass density, 323.15 K [kg/m3] | speed of sound, 298.15 K [m/s]
m1 = 0.07666 | – | – | – | – | – | – | – | 1282.8
m1 = 0.08738 | – | – | – | – | – | – | – | 1283.5
m1 = 0.1308 | 812.076 | 806.744 | 801.389 | 796.009 | 790.599 | 785.164 | 774.198 | 1286
m1 = 0.1732 | 820.267 | 814.947 | 809.604 | 804.238 | 798.846 | 793.424 | 782.485 | 1288.4
m1 = 0.216 | 828.628 | 823.32 | 817.989 | 812.633 | 807.252 | 801.843 | 790.933 | 1290.8
m1 = 0.257 | 836.778 | 831.471 | 826.148 | 820.803 | 815.431 | 810.032 | 799.145 | 1293
m1 = 0.298 | 845.062 | 839.769 | 834.455 | 829.123 | 823.764 | 818.379 | 807.522 | 1295.3
m1 = 0.3364 | 852.972 | 847.683 | 842.377 | 837.051 | 831.7 | 826.326 | 815.497 | 1297.9
m1 = 0.3745 | 860.854 | 855.574 | 850.277 | 844.96 | 839.624 | 834.26 | 823.454 | 1300.3
m1 = 0.4122 | 868.75 | 863.479 | 858.191 | 852.884 | 847.554 | 842.203 | 831.418 | 1302.7

CC#N [acetonitrile] + [O-][Cl+3]([O-])([O-])[O-].[O-][Cl+3]([O-])([O-])[O-].[Zn+2]
[2], m2 = 0
Conditions | mass density [kg/m3]
288.13 K | 787.312
293.15 K | 781.934
298.15 K | 776.535
303.15 K | 771.106
308.15 K | 765.649
313.15 K | 760.158
323.15 K | 749.07

CC#N [acetonitrile] + [Cu+2].[O-][Cl+3]([O-])([O-])[O-].[O-][Cl+3]([O-])([O-])[O-]
[2], m2 = 0
Conditions | mass density [kg/m3]
288.13 K | 787.308
293.15 K | 781.932
298.15 K | 776.532
303.15 K | 771.102
308.15 K | 765.645
313.15 K | 760.155
323.15 K | 749.067
